Results reported in ChEMBL document CHEMBL6121005 (Eur J Med Chem, 2025).
Active and inactive are the calls of the source. The calls are words filed in the database; no cut-off is given here.

Columns and labels:
Cholinesterase [1] = biological target: T1, Cholinesterase (Homo sapiens, UniProt P06276); test: Inhibition of human serum BuChE using butyrylthiocholine iodide as substrate at 10 uM incubated for 10 mins followed by substrate addition by DTNB reagent based Ellman's method relative to control
T1 sequence (P06276 whole entry): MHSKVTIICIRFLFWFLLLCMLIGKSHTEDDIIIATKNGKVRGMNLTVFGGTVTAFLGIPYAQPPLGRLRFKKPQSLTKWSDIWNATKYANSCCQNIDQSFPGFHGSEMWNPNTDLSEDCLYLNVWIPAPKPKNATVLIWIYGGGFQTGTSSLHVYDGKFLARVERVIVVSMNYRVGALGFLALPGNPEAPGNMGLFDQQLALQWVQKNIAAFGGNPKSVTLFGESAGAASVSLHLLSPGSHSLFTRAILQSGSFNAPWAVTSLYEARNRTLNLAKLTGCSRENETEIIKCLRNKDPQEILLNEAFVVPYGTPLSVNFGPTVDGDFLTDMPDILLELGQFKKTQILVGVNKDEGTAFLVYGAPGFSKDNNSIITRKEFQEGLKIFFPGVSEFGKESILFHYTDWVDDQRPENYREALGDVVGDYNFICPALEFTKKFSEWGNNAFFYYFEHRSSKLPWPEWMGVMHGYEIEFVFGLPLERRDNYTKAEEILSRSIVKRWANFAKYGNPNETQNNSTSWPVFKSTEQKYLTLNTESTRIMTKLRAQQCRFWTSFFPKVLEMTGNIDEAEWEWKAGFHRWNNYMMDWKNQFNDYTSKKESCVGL

Acetylcholinesterase = Acetylcholinesterase (Homo sapiens, UniProt P22303); test: Inhibition of human erythrocytes AChE measured after 10 mins by Ellman's method
Sequence of Acetylcholinesterase (P22303 whole entry): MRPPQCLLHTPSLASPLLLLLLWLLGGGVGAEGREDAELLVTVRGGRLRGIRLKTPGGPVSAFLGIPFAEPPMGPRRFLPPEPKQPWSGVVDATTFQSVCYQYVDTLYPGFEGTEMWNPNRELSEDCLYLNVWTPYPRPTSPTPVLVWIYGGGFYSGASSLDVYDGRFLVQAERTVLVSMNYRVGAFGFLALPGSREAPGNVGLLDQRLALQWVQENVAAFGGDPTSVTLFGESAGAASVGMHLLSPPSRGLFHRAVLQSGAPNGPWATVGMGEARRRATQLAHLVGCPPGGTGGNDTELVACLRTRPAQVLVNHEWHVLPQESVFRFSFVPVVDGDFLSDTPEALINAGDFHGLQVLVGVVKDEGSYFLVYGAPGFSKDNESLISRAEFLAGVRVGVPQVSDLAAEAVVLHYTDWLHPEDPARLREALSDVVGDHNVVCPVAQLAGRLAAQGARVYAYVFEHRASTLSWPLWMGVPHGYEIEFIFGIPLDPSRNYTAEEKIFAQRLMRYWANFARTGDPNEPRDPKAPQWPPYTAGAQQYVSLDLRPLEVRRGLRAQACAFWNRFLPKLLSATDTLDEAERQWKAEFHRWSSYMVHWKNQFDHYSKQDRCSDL

Cholinesterase [2] = biological target: T1, Cholinesterase; test: Inhibition of human serum BuChE using butyrylthiocholine iodide as substrate incubated for 10 mins followed by substrate addition by DTNB reagent based Ellman's method
PC-12 [3] = test: (§1) Neuroprotective activity against H2O2-induced rat PC12 cells assessed as protection against H2O2-induced apoptosis by measuring early apoptotic cells at 50 uM pretreated for 2 hrs followed by H2O2 addition and measured after 24 hrs by Annexin V-FITC/PI staining based flow cytometry analysis (reference value: 0.88 %); format: functional; conditions: time 26 hrs
PC-12 [4] = test: as §1, with “necrotic” for “early apoptotic”, “0.99” for “0.88”; format: functional; conditions: time 26 hrs
[5] = Cytotoxicity against rat PC12 cells assessed as cell viability at 50 uM preincubated for 24 hrs and measured after 4 hrs by CCK-8 assay; format: toxicity, cell-based, PC-12; conditions: time 28 hrs, read-out: Activity
PC-12 [6] = test: as §1, with “late” for “early”, “7.26” for “0.88”; format: functional; conditions: time 26 hrs
[7] = Inhibition of H2O2-induced ROS release in rat PC12 cells assessed as mean fluorescence intensity at 50 uM preincubated for 2 hrs followed by H2O2 addition and measured after 24 hrs by DCFH-DA based flow cytometry analysis (reference value: 23904); format: functional, PC-12; conditions: time 26 hrs
PC-12 [8] = test: Cytoprotective against rat PC12 cells assessed as cell viability at 50 uM preincubated for 24 hrs and measured after 4 hrs by CCK-8 assay; format: functional, cell-based
PC-12 [9] = test: as §1, with “viable” for “early apoptotic”, “90.8” for “0.88”; format: functional; conditions: time 26 hrs

COc1ccc2c3c1O[C@H]1C[C@@H](OC(=O)NCc4ccc(C#N)cc4)C=C[C@@]31CCN(C)C2
inhibition (Cholinesterase [1]): 2.57%

COc1ccc2c3c1O[C@H]1C[C@@H](OC(=O)NC4CCN(Cc5ccc(Cl)cc5)CC4)C=C[C@@]31CCN(C)C2
inhibition (Cholinesterase [1]): 30.2%

COc1ccc2c3c1O[C@H]1C[C@@H](OC(=O)NC4CCN(Cc5ccc(F)cc5)CC4)C=C[C@@]31CCN(C)C2
inhibition (Cholinesterase [1]): 21%
IC50 (Acetylcholinesterase): 399 nM

COc1ccc2c3c1O[C@H]1C[C@@H](OC(=O)NCc4cc(F)cc(F)c4)C=C[C@@]31CCN(C)C2
inhibition (Cholinesterase [1]): 4.56%

COc1ccc2c3c1O[C@H]1C[C@@H](OCc4ccc(Cc5ccc(F)cc5)cn4)C=C[C@@]31CCN(C)C2
inhibition (Cholinesterase [1]): 90.3%
IC50 (Cholinesterase [2]): 1010 nM

COc1ccc2c3c1O[C@H]1C[C@@H](OC(=O)NCc4cccc(F)c4)C=C[C@@]31CCN(C)C2
inhibition (Cholinesterase [1]): 14.6%

COc1ccc(CNC(=O)O[C@H]2C=C[C@@]34CCN(C)Cc5ccc(OC)c(c53)O[C@H]4C2)cc1
inhibition (Cholinesterase [1]): 2.97%

COc1ccc2c3c1O[C@H]1C[C@@H](OC(=O)NCc4ccc(OC(F)(F)F)cc4)C=C[C@@]31CCN(C)C2
inhibition (Cholinesterase [1]): 18.2%

COc1ccc2c3c1O[C@H]1C[C@@H](OC(=O)NCc4ccc(C)cc4)C=C[C@@]31CCN(C)C2
inhibition (Cholinesterase [1]): 4.99%

COc1ccc2c3c1O[C@H]1C[C@@H](OCc4ccc(Cc5ccc(Cl)cc5)cn4)C=C[C@@]31CCN(C)C2
inhibition (Cholinesterase [1]): 88.7%
IC50 (Cholinesterase [2]): 1030 nM

COc1ccc2c3c1O[C@H]1C[C@@H](OCc4ccc(Cc5cccc(Cl)c5)cn4)C=C[C@@]31CCN(C)C2
Activity (PC-12 [3]): 10.9%
Activity (PC-12 [4]): 1.45%
viability at 4 h, 50 µM [5]: > 90%
inhibition (Cholinesterase [1]): 90.5%
Activity (PC-12 [6]): 15%
IC50 (Cholinesterase [2]): 913 nM
Flu intensity [7]: 88808
IC50 (Acetylcholinesterase): 3390 nM
Activity (PC-12 [8]): Active
Activity (PC-12 [9]): 72.4%

COc1ccc2c3c1O[C@H]1C[C@@H](OC(=O)NC4CCN(Cc5cccc(C(F)(F)F)c5)CC4)C=C[C@@]31CCN(C)C2
inhibition (Cholinesterase [1]): 25.1%
IC50 (Acetylcholinesterase): 601 nM

COc1ccc2c3c1O[C@H]1C[C@@H](OC(=O)NCc4ccccc4F)C=C[C@@]31CCN(C)C2
inhibition (Cholinesterase [1]): 18.4%

COc1ccc2c3c1O[C@H]1C[C@@H](OC(=O)NCc4ccc5ccccc5c4)C=C[C@@]31CCN(C)C2
inhibition (Cholinesterase [1]): 6.44%

COc1ccc2c3c1O[C@H]1C[C@@H](OC(=O)NC4CCN(Cc5ccc([N+](=O)[O-])cc5)CC4)C=C[C@@]31CCN(C)C2
inhibition (Cholinesterase [1]): 24.6%

Oc1ccc(/C=C/c2cc(O)cc(O)c2)cc1 [RESVERATROL]
Activity (PC-12 [3]): 3.58%
Activity (PC-12 [4]): 1.79%
Activity (PC-12 [6]): 6.38%
Flu intensity [7]: 29540
Activity (PC-12 [9]): 88.3%

COc1ccc2c3c1O[C@H]1C[C@@H](OCc4ccc(Cc5ccc(C)cc5)cn4)C=C[C@@]31CCN(C)C2
inhibition (Cholinesterase [1]): 87.4%
IC50 (Cholinesterase [2]): 1350 nM

COc1ccc2c3c1O[C@H]1C[C@@H](OC(=O)NCc4ccc([N+](=O)[O-])cc4)C=C[C@@]31CCN(C)C2
inhibition (Cholinesterase [1]): 6.23%

COc1ccc2c3c1O[C@H]1C[C@@H](OC(=O)NCc4ccc(F)cc4)C=C[C@@]31CCN(C)C2
inhibition (Cholinesterase [1]): 12.7%
